Measurements reported in patent publication US4654373A, “Pharmaceutical formulations containing coenzyme Q10 suitable for topic administration” (Italfarmaco S.A., priority 1982, dated 1987).

Legend:
[1] = system: dithranol (anthralin) induced inflammatory reaction; assay: Test of dithranol induced cutaneous inflammation; type: in vivo, male Guinea pig; settings: topical 2 mg/cm^2 cutis, both in peanut and soybean oil, 48 hours
Description: Male Guinea pigs, weighing 330 g, were epilated at the back and, 24 hours after that, 20 mg of dithranol (anthralin) was intradermically injected into symmetric areas of the back.
Coenzyme Q10 dissolved in peanut and soybean oil was spread on the backs of the animals under test, at the dosage of 2 mg/cm^2 cutis, whereas the control group of animals was subjected to no treatment.
The treated area was covered with Nescofilm and bound up with Micropore.
48 Hours after the administration of the inflammatory agent, the size of the induced inflammatory area was evaluated.

[2] = cited from earlier work
New Zealand rabbits = assay: Acute toxicity by topical cutaneous route in rabbits; type: in vivo, New Zealand rabbit; settings: 5 to 20 mg per cm^2 of depilated (intact or abraded) back, immediately and after 8 days
Description: Similar experiences were carried out also on a group of 8 New Zealand rabbits of both sexes, having the back depilated. The cutis of 4 of these animals was also abraded.
Two days after the depilation, the compositions of the invention, corresponding to doses of Coenzyme Q10 ranging from 5 to 20 mg per square centimeter of area of the depilated back, were spread on the cutis of the animals so prepared.

male New Zealand rabbits = assay: Chronic toxicity, topical, 60 days, rabbits; settings: 50 mg/kg/die, daily for 60 days
Description: (§1) These tests were carried out by administering locally on the skin of two groups of 30 male Wistar rats and of 6 male New Zealand rabbits with the skin epilated, the skin of one group being epilated and abraded, a pharmaceutical composition for a total amount of 50 mg/kg/die of Coenzyme Q10.
(§2) The administration went on daily for 60 consecutive days.
(§3) Before the start of the treatment and at the end all the animals were subjected to a series of controls and examinations regarding the ponderal increase, red-cells and white cells count, haemoglobin concentration in the blood, glycemia, azotemia, transaminases and blood total proteins. The urinary elimination was also tested. At the end of treatment all the animals were killed and accurate anatomopathological and histopathological examinations were performed on each animal with particular regard to the zones of treated skin.

[3] = Distribution after oral administration (HPLC); type: in vivo, rat; settings: oral 50 mg/kg; for concentration at 0.5 h / concentration at 1 h / concentration at 6 h: rat; for concentration at 0.5 h: 30 min.; for concentration at 1 h: 60 min.
Description: Rats were treated with 50 mg/kg of Coenzyme Q10 by oral route and the concentration of the active principle was determined by using the HPLC method in several organs after 30 min., 60 min. and 6 hours.

[4] = system: carrageenin oedema in the rat paw; assay: Carrageenin oedema test in rats; type: in vivo, male rat; settings: topical, both formulations
Description: To male rats weighing 220 g, fasted for 24 hours, 0.1 ml of 1% carrageenin suspension was injected into the plantar surface of a hind paw.
The control group, consisting of 25 animals, was administered with the only carrageenin, two other groups, consisting each of 25 animals, were topically administered with Coenzyme Q10 in form of two different formulations, in peanut oil and olive oil respectively, before the carrageenin injection. The results were expressed by means of a plethysmograph, which measured the size of the oedema 4 hours after the carrageenin injection.

holes in rabbits' ears = assay: Tissular regeneration and healing of holes in rabbits' ears; type: in vivo, New Zealand rabbit; settings: topical composition, 5 mg/cc, versus not treated rabbits
[5] = Cutaneous absorption in volunteers; type: in vivo, human (health volunteers); settings: human, skin, topical or ocular, 1 mg/cm^2, corneous layer removed, read-out: mean percent absorption
Description: For these tests the method described by Tauber and al. [Arzneimittel Forschung, 26, N7b, 1492 (1976)].
On 4 health volunteers, areas of about 30 cm^2 of skin whose corneous layer had been removed, were spread with a composition corresponding to 1 mg/cm^2 of Coenzyme Q10.
Immediately after the application and after 24 hours from the application on the skin, the composition not absorbed was removed by cotton-wool and the cotton-wool used for the removal was extracted with chloroform/ethanol.
After saponification in presence of pyrogallole the fraction containing Coenzyme Q10 and other neutral fact was extracted with hydrocarbon solvents and purified chromatographically on column.
The spectrophotometric measure was carried out according to the method described by Linn and al. [J. Am. Chem. Soc., 81, 4007 (1959)].

[6] = Cutaneous absorption of Coenzyme Q10 in the rat; type: in vivo, male Wistar rat; settings: topical, 5 mg/kg/cm^2 of skin
Description: In order to evaluate the cutaneous absorption of Coenzyme Q10 after its application on the skin a group of male Wistar rats of the average weight of 280 g was used. The animals were epilated on the back and a composition corresponding to a dose of Coenzyme Q10 of 5 mg/kg/cm^2 of skin was applied on the epilated back.
Samples of skin were then removed both from treated and untreated animals at intervals of 1, 3, 6 and 24 hours from treatment. The skin, together with the removed subcutaneous tissue, was homogenized and kept at -20° C. till the moment of analysis.
Samples of 5 g each of tissue were saponified in the presence of pyrogallole.
The fraction containing Coenzyme Q10 and other neutral fats was extracted with hydrocarbon solvents and purified chromatographically on column.
The spectrophotometric measurement was performed according to the method described by Linn B. O., Page A. C., Wong E. L., Gale, P. H., Shunk C. H., Folkers K. [J. Am. Chem. Soc., 81, 4007 (1959)].

[7] = in excipients compatible with parenteral administration; cited from earlier work
Wistar rats = assay: Acute toxicity by topical cutaneous route in rats; type: in vivo, Wistar rat; settings: 5 mg up to 20 mg per cm^2 of depilated (intact or abraded) skin, immediate and eight days after treatment
Description: To assess the toxicity of the product administered by the topical cutaneous route, two groups of forty Wistar rats of both sexes in the same number, carefully depilated on the back, were used.
To a group of these rats, the depilated skin was also abraded. On the cutis so prepared after two days the compositions of the invention containing increasing amounts of Coenzyme Q10 in the ratio of 5 mg up to 20 mg for each square centimeter of depilated skin, were spread for each group of ten rats.

experimental burns = assay: Experimental burn in the rat; type: in vivo, male Wistar rat
dental caries = assay: Dental caries in hamster fed by cariogenic diet; type: in vivo; settings: 25 mg/kg on the dental gingival region
[8] = Cutaneous concentration after topical administration (HPLC); type: in vivo, rat; settings: topical 2 mg/cm^2, vegetal oils as solvents and excipients
Description: Rats were cutaneously treated with 2 mg/cm^2 of skin of Coenzyme Q10 and the concentration was measured by the HPLC method. The results are listed in Table 3 for two different vehicles.

pregnant Wistar rats = assay: Theratogenesis test, topical; settings: topical on epilated and abraded skin, 50 mg/kg/die, seventh to fifteenth day of pregnancy
Description: In order to evaluate if the administration by the topical route of Coenzyme Q10 could interfere on the normal ebryonal or phaetal development, a pharmaceutical composition of the invention corresponding to an amount of Coenzyme Q10 of 50 mg/kg/die was spread on the epilated and abraded skin of ten pregnant Wistar rats.
The administration was carried out from the seventh to the fifteenth day of pregnancy.
The main internal organs were also subjected to observation.

male Wistar rats = assay: Chronic toxicity, topical, 60 days, rats; settings: 50 mg/kg/die, daily for 60 days
Description: as §1, §2, §3

[9] = Distribution after parenteral (intramuscular) administration (HPLC); type: in vivo, rat; settings: intramuscular 20 mg/kg; for concentration at 0.5 h / concentration at 1 h / concentration at 6 h: rat, im; for concentration at 0.5 h: 30 min.; for concentration at 1 h: 60 min.
Description: Rats were treated with 20 mg/kg of Coenzyme Q10 by intramuscular injection and the concentration of the active compound was determined by HPLC after 30 min., 60 min. and 6 hours.

[10] = oral route; cited from earlier work
[11] = oral 50-100 mg/dosage (100-200 mg pro die)
[12] = heart, read-out: Mean tissutal concentration
[13] = kidney, read-out: Mean tissutal concentration
[14] = liver, read-out: Mean tissutal concentration
[15] = plasma, read-out: Mean plasmatic concentration

COC1=C(OC)C(=O)C(CC=C(C)CCC=C(C)CCC=C(C)CCC=C(C)CCC=C(C)CCC=C(C)CCC=C(C)CCC=C(C)CCC=C(C)CCC=C(C)C)=C(C)C1=O [Coenzyme Q10, 2,3-dimethoxy-5-methyl-6-decaprenyl-benzoquinone]
decrease of inflammatory areas with respect to non-treated animals [1]: 50%
clinical results (in words) [2, 11]: satisfactory clinical results
side-effects (in words) [2, 11]: increases, sometimes intolerably, the side-effects of the drug
change in Coenzyme Q10 in peripheral tissues (in words) ([2]; oral administration of high doses): no changes in Coenzyme Q10 are detectable
mortality or clear toxicity (New Zealand rabbits): neither immediately after the administration nor after 8 days, mortality cases or clear toxicity were noticed
biological parameters versus untreated controls (male New Zealand rabbits): did not show, in comparison with the untreated control animals, any significative difference in the different biological parameters considered
histological examination of the skin (male New Zealand rabbits): did not show any pathological change
cutaneous concentration (in words) [3]: no appreciable appearance of cutaneous concentration
heart concentration change (in words) [3]: substantial changes occur at the heart level
plasmatic concentration change (in words) [3]: negligeable
concentration at 0.5 h [3, 12]: 7100 ng/g
concentration at 1 h [3, 12]: 12300 ng/g
concentration at 6 h [3, 12]: 14700 ng/g
concentration at 0.5 h [3, 13]: 6500 ng/g
concentration at 1 h [3, 13]: 10100 ng/g
concentration at 6 h [3, 13]: 15600 ng/g
concentration at 0.5 h [3, 14]: 4100 ng/g
concentration at 1 h [3, 14]: 7100 ng/g
concentration at 6 h [3, 14]: 9800 ng/g
concentration at 0.5 h [3, 15]: 170 ng/mL
concentration at 1 h [3, 15]: 190 ng/mL
concentration at 6 h [3, 15]: 2700 ng/mL
carrageenin oedema inhibition (in words) [4]: partially inhibited
tissular regeneration and healing processes (holes in rabbits' ears): much faster than in the not treated rabbits
Fa at 24 h [5]: 18.5 ± 6.2%
time of highest concentrations in cutaneous tissue [6]: from the third to the sixth hour after the administration
solubility (in words) [7]: very low solubility
mortality, toxic effect or intolerance (Wistar rats): did not show the appearance of any mortality cases, toxic effect or intolerance
seriousness of the lesions (in words) (experimental burns; preventive topical application, 1-2 mg/cm^2 of skin): decreased in fact the seriousness of the lesions
protective effect on experimental burn (in words) (experimental burns; topical route): protective effect
reduction of the seriousness of the burn (Blue Evans) (experimental burns; treated daily, 1-2 mg/cm^2 of skin, 4 consecutive days preceding burn induction): more than 50%
seriousness of the burn versus control rats (Blue Evans) (experimental burns; treated only once half an hour before burn induction): not significantly different
treated animals in which onset of dental caries is prevented (dental caries): more than 50%
concentration at the cutis level (in words) [8]: A good increase
alteration or malformation of phoetuses (pregnant Wistar rats): no alteration or malformation was noticed
biological parameters versus untreated controls (male Wistar rats): did not show, in comparison with the untreated control animals, any significative difference in the different biological parameters considered
histological examination of the skin (male Wistar rats): did not show any pathological change
cutaneous concentration (in words) [9]: no concentration in the cutis is present at any time
concentration at 0.5 h [9, 12]: 10500 ng/g
concentration at 1 h [9, 12]: 14300 ng/g
concentration at 6 h [9, 12]: 16200 ng/g
concentration at 0.5 h [9, 13]: 9500 ng/g
concentration at 1 h [9, 13]: 11500 ng/g
concentration at 6 h [9, 13]: 10200 ng/g
concentration at 0.5 h [9, 14]: 11700 ng/g
concentration at 1 h [9, 14]: 12600 ng/g
concentration at 6 h [9, 14]: 14400 ng/g
concentration at 0.5 h [9, 15]: 270 ng/mL
concentration at 1 h [9, 15]: 940 ng/mL
concentration at 6 h [9, 15]: 800 ng/mL
LD50 [10]: higher than 4 g/kg
